{"source": "patent US20020081339A1", "about": "“Treatment of inoperable tumors by stereotactic injection of microspheres” (priority 2000, published 2002)", "origin": "cited, not measured here", "conditions": "hydrophilic molecule"}
{"smiles": "O=c1[nH]cc(F)c(=O)[nH]1", "note": "[5-FU, 5-fluorouracil]", "values": [{"measurement": "crossing of the blood-brain barrier", "value": "crosses the blood-brain barrier very weakly"}]}
